From patent US20030187028A1, “Medicament for viral diseases” (priority 2000, published 2003)

How the values were obtained:
[1] = tested on: hepatitis B virus-producing HepG2.2.15 cells; assay: Antiviral test: reduction of HBV DNA in HepG2.2.15 cells (dot-blot hybridization); assay type: cell-based; details: HepG2.2.15, 96 h
Protocol: The antiviral action of the compounds according to the invention was investigated by methods based on those described by M. A. Sells et al., Proc. Natl. Acad. Sci. 84, 1005-1009 (1987) and B. E. Korba et al., Antiviral Research 19, 55-70 (1992).
The antiviral tests were carried out in 96-well microtitre plates. The first vertical row of the plate received only growth medium and HepG2.2.15 cells. It served as virus control.
Stock solutions of the test compounds (50 mM) were initially dissolved in DMSO, and further dilutions were prepared in the HepG2.2.15 growth medium. The compounds according to the invention were usually pipetted in a test concentration of 100 μM (1st test concentration) in each case into the second vertical test row of the microtitre plate and subsequently diluted in twofold steps 2^10 times in growth medium+2% by weight fetal calf serum (volume 25 μl).
Each well of the microtitre plate then contained 225 μl of HepG2.2.15 cell suspension (5×10^4 cells/ml) in growth medium+2% by weight of fetal calf serum.
The test mixture was incubated at 37° C. and 5% CO2 (v/v) for 4 days.
The supernatant was then aspirated off and discarded, and the wells received 225 μl of freshly prepared growth medium. The compounds according to the invention were each added anew as 10-fold concentrated solution in a volume of 25 μl. The mixtures were incubated for a further 4 days.
The supernatants/cells were then harvested and sucked by means of a vacuum onto 96-well dot-blot chambers covered with a nylon membrane (in accordance with the manufacturer's information).
After the supernatants or cells had been transferred to the nylon membrane of the blot apparatus (see above), the supernatants of the HepG2.2.15 cells were denatured (1.5 M NaCl/0.5 N NaOH), neutralized (3M NaCl/0.5M Tris HCl, pH 7.5) and washed (2×SSC). The DNA was then baked onto the membrane by incubating the filters at 120° C. for 2-4 hours.
Detection of the viral DNA from the treated HepG2.2.15 cells on the nylon filters was easily carried out with non-radioactive, digoxigenin-labelled hepatitis B-specific DNA probes, each of which was labelled with digoxigenin, purified and employed for the hybridization in accordance with the manufacturer's information.
The prehybridization and hybridization took place in 5×SSC, 1× blocking reagent, 0.1% by weight N-lauroylsarcosine, 0.02% by weight SDS and 100 μg of herring sperm DNA. The prehybridization took place at 60° C. for 30 minutes, and the specific hybridization with 20 to 40 ng/ml of the digoxigenized, denatured HBV-specific DNA took place at 60° C. for 14 hours. The filters were then washed.
The immunological detection of the digoxigenin-labelled DNA took place in accordance with the manufacturer's information:
The filters were washed and prehybridized in a blocking reagent (in accordance with the manufacturer's information). Hybridization was then carried out with an anti-DIG antibody coupled to alkaline phosphatase for 30 minutes. After a washing step, the substrate of alkaline phosphatase, CSPD, was added, incubated with the filters for 5 minutes, then packed in plastic film and incubated at 37° C. for a further 15 minutes.
The chemiluminescence of the hepatitis B-specific DNA signals was visualized by exposing the filters to an X-ray film (incubation depending on signal strength: 10 minutes to 2 hours).
The half-maximum inhibitory concentration (IC-50, 50% inhibitory concentration) was determined as the concentration at which the hepatitis B-specific band was reduced by the compound according to the invention by 50% compared with an untreated sample.

HepG2.2.15 cells = assay: Cytotoxicity determination in HepG2.2.15 cells; assay type: cell-based; details: 50% cytotoxicity
From the text: Before harvesting the supernatants and/or cells to determine the antiviral effect, the HepG2.2.15 cells were examined under the light microscope or by means of biochemical detection methods (for example Alamar Blue stain or Trypan Blue stain) for cytotoxic changes.
Substance-induced cytotoxic or cytostatic changes in the HepG2.2.15 cells were detected, for example, under the light microscope as changes in cell morphology. Such substance-induced changes in the HepG2.2.15 cells compared with untreated cells were visible, for example, as cytolysis, vacuolation or altered cell morphology.
The tolerability of some of the compounds according to the invention was additionally tested on other host cells such as, for example, HeLa cells, primary human peripheral blood cells or transformed cell lines such as H-9 cells.
As a rule, the compounds according to the invention were tolerated up to concentrations of 10 μM (Tox. −50).

SMILES: Cc1cc(NC(=O)c2c(C)noc2C)ccc1F [Example 2, N-(4-Fluoro-3-methylphenyl)-3,5-dimethylisoxazole-4-carboxamide]
- IC50 [1]: 200 nM
- Tox-50 (HepG2.2.15 cells): >100 μM/l

SMILES: CCc1onc(C)c1C(=O)Nc1ccc(F)c(Cl)c1 [Example 12]
- IC50 [1]: 500 nM
- Tox-50 (HepG2.2.15 cells): >100 μM/l

SMILES: Cc1cc(NC(=O)c2c(C)noc2C(F)(F)F)ccc1F [Example 16]
- IC50 [1]: 750 nM
- Tox-50 (HepG2.2.15 cells): >100 μM/l

SMILES: CCCc1onc(C)c1C(=O)Nc1cccc(C)c1 [Example 21]
- IC50 [1]: 1000 nM
- Tox-50 (HepG2.2.15 cells): >100 μM/l

SMILES: Cc1cccc(NC(=S)c2c(C)noc2C)c1 [Example 29]
- IC50 [1]: 4000 nM
- Tox-50 (HepG2.2.15 cells): >100 μM/l

SMILES: Cc1oncc1C(=O)Nc1ccc(C(F)(F)F)cc1 [Leflunamide, N-(4-trifluoromethylphenyl)-5-methylisoxazole-4-carboxamide, reference compound]
- IC50 [1]: > 70000 nM
- Tox-50 (HepG2.2.15 cells): 70 μM/l
